Experimental data from article PMC5999115, “Anti-tumor activity of phenoxybenzamine and its inhibition of histone deacetylases” (PLoS ONE, 2018).

How the values were obtained:
[1] = Aqueous solubility in the NCI60 assay conditions; assay type: physicochemical
Description: The reason for the lack of activity after dissolution in DMSO has not been pursued further, but DMSO was eliminated in all subsequent assay systems.

HDAC8 = biological target: T1, HDAC8 (Homo sapiens, UniProt Q9BY41); experiment: Fluorogenic HDAC deacetylase assay (BPS Bioscience); assay type: biochemical
T1 construct: purchased BPS Bioscience 50008

MMXF RPMI 8226 = experiment: Oncotest CellTiter-Blue cell viability assay, 72 hours; assay type: cell-based, human
Description: (§1) Further studies with varying drug concentrations on selected human cell lines, in most cases those studied in the NCI60 screen, were conducted by Oncotest GmbH laboratories, Freiburg, Germany; Oncotest is a division of Charles River Laboratories. The dissolution procedure for PBZ and the cell culture […] was 72 hours; anti-tumor activity was determined with the CellTiter-Blue® Cell Viability Assay, Promega, Mannheim, Germany. The 50% Inhibitory (IC50) concentrations were determined. The results are the average of duplicate assays. Paclitaxel was included as a reference compound to confirm the integrity of the assays. See S1 Appendix for further details.
(§2) “Cell lines were routinely passaged once or twice weekly and maintained in culture for up to 20 passages. Cells were grown at 37°C in a humidified atmosphere with 5% CO2 in RPMI 1640 medium (25 mM HEPES, with L-glutamine, #FG1385, Biochrom, Berlin, Germany) supplemented with 10% (v/v) fetal calf serum (Sigma, Taufkirchen, Germany) and 0.1 mg/mL gentamicin (Life Technologies, Karlsruhe, Germany).”

MEXF UACC-257 = experiment: as above; assay type: cell-based, human
Description: as §1, §2

OVXF OVCAR-8 = experiment: as above; assay type: cell-based, human
Description: as §1, §2

MAXF T47D = experiment: as above; assay type: cell-based, human
Description: as §1, §2

LXFS DMS 273 = experiment: as above; assay type: cell-based, human
Description: as §1, §2

HDAC5 = biological target: T2, HDAC5 (Homo sapiens, UniProt Q9UQL6); experiment: Fluorogenic HDAC deacetylase assay (BPS Bioscience); assay type: biochemical
T2 construct: purchased BPS Bioscience 50005

[2] = MMX RPMI8226, 1% FCS, study P495C
[3] = MMX RPMI8226, 10% FCS, study P495A
[4] = MMX RPMI8226, 10% FCS, study P495B
[5] = MEXF UACC-257, 1% FCS, study P495C
[6] = MEXF UACC-257, 10% FCS, study P495A
[7] = OVXF OVCAR-8, 1% FCS, study P495C
[8] = OVXF OVCAR-8, 10% FCS, study P495A
[9] = OVXF OVCAR-8, 10% FCS, study P495B
[10] = LXFS DMS273, 1% FCS, study P495C
[11] = LXFS DMS273, 10% FCS, study P495A

T1 sequence (Q9BY41 whole entry): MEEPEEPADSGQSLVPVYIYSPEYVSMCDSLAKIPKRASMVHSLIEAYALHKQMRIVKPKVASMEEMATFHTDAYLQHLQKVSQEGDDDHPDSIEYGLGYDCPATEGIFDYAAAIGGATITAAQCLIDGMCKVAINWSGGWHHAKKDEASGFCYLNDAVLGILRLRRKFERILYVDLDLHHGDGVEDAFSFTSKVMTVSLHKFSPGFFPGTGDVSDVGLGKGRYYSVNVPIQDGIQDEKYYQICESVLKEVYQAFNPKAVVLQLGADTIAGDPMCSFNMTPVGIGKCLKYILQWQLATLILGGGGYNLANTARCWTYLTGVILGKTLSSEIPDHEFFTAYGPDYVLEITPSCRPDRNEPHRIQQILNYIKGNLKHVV
T2 sequence (Q9UQL6 656-1122 limits assumed): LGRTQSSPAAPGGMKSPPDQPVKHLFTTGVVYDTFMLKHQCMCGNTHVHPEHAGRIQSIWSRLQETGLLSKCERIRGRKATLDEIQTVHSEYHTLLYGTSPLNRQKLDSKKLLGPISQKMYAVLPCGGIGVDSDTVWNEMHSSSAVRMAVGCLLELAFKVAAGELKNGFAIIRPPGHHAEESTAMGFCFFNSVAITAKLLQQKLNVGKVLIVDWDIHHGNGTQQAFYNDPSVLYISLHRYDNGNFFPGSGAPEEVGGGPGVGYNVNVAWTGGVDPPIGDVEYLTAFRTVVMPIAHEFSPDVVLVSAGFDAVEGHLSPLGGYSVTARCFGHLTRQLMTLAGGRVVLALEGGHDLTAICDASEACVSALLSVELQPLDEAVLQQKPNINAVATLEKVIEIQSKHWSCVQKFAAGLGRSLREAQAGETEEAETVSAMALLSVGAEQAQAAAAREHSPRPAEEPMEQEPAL

## CC(COc1ccccc1)N(CCCl)Cc1ccccc1 (stereo not shown) [PBZ, phenoxybenzamine]
[1]
  aqueous solubility: adequate aqueous solubility
HDAC8; HDAC8, 10 µM
  % inhibition @ 10 uM: ~30%
HDAC8; read-out: % inhibition @ 10 uM, HDAC8
  inhibition at 10 µM: 34%
MMXF RPMI 8226; 10 μM phenoxybenzamine, RPMI 8226
  Percent cell growth in Oncotest screen with 10% FCS (72 hr incubation): 98%
MMXF RPMI 8226; Homo sapiens, MMXF RPMI 8226 Myeloma, 1% FCS
  IC50: 44.4 µM
MMXF RPMI 8226; [2]
  Test/Control (%) at Drug Concentration [uM] 1,0E+00: 102%
  Test/Control (%) at Drug Concentration [uM] 1,0E+01: 95%
  Test/Control (%) at Drug Concentration [uM] 1,0E+02: 5%
  Test/Control (%) at Drug Concentration [uM] 3,2E+00: 101%
  Test/Control (%) at Drug Concentration [uM] 3,2E+01: 77%
MMXF RPMI 8226; [3]
  Test/Control (%) at Drug Concentration [uM] 1,0E+00: 89%
  Test/Control (%) at Drug Concentration [uM] 1,0E+01: 98%
  Test/Control (%) at Drug Concentration [uM] 1,0E+02: 10%
  Test/Control (%) at Drug Concentration [uM] 1,0E-01: 83%
  Test/Control (%) at Drug Concentration [uM] 1,0E-02: 80%
  Test/Control (%) at Drug Concentration [uM] 3,2E+00: 87%
  Test/Control (%) at Drug Concentration [uM] 3,2E+01: 99%
  Test/Control (%) at Drug Concentration [uM] 3,2E-01: 84%
  Test/Control (%) at Drug Concentration [uM] 3,2E-02: 76%
  Test/Control (%) at Drug Concentration [uM] 3,2E-03: 86%
MMXF RPMI 8226; [4]
  Test/Control (%) at Drug Concentration [uM] 1,0E+00: 88%
  Test/Control (%) at Drug Concentration [uM] 1,0E+01: 94%
  Test/Control (%) at Drug Concentration [uM] 1,0E+02: 16%
  Test/Control (%) at Drug Concentration [uM] 1,0E-01: 100%
  Test/Control (%) at Drug Concentration [uM] 1,0E-02: 100%
  Test/Control (%) at Drug Concentration [uM] 1,0E-03: 100%
  Test/Control (%) at Drug Concentration [uM] 3,2E+00: 92%
  Test/Control (%) at Drug Concentration [uM] 3,2E+01: 95%
MEXF UACC-257; 10 μM phenoxybenzamine, UACC-257
  Percent cell growth in Oncotest screen with 10% FCS (72 hr incubation): 107%
MEXF UACC-257; Homo sapiens, MEXF UACC-257 Melanoma, 1% FCS
  IC50: 49.8 µM
MEXF UACC-257; [5]
  Test/Control (%) at Drug Concentration [uM] 1,0E+00: 101%
  Test/Control (%) at Drug Concentration [uM] 1,0E+01: 107%
  Test/Control (%) at Drug Concentration [uM] 1,0E+02: 41%
  Test/Control (%) at Drug Concentration [uM] 3,2E+00: 106%
  Test/Control (%) at Drug Concentration [uM] 3,2E+01: 77%
MEXF UACC-257; [6]
  Test/Control (%) at Drug Concentration [uM] 1,0E+00: 101%
  Test/Control (%) at Drug Concentration [uM] 1,0E+01: 107%
  Test/Control (%) at Drug Concentration [uM] 1,0E+02: 68%
  Test/Control (%) at Drug Concentration [uM] 1,0E-01: 101%
  Test/Control (%) at Drug Concentration [uM] 1,0E-02: 101%
  Test/Control (%) at Drug Concentration [uM] 3,2E+00: 109%
  Test/Control (%) at Drug Concentration [uM] 3,2E+01: 106%
  Test/Control (%) at Drug Concentration [uM] 3,2E-01: 104%
  Test/Control (%) at Drug Concentration [uM] 3,2E-02: 113%
  Test/Control (%) at Drug Concentration [uM] 3,2E-03: 103%
OVXF OVCAR-8; 10 μM phenoxybenzamine, OVCAR-8
  Percent cell growth in Oncotest screen with 10% FCS (72 hr incubation): 90%
OVXF OVCAR-8; Homo sapiens, OVXF OVCAR-8 Ovarian, 1% FCS
  IC50: 31.9 µM
OVXF OVCAR-8; [7]
  Test/Control (%) at Drug Concentration [uM] 1,0E+00: 102%
  Test/Control (%) at Drug Concentration [uM] 1,0E+01: 100%
  Test/Control (%) at Drug Concentration [uM] 1,0E+02: 22%
  Test/Control (%) at Drug Concentration [uM] 3,2E+00: 104%
  Test/Control (%) at Drug Concentration [uM] 3,2E+01: 61%
OVXF OVCAR-8; [8]
  Test/Control (%) at Drug Concentration [uM] 1,0E+00: 84%
  Test/Control (%) at Drug Concentration [uM] 1,0E+01: 90%
  Test/Control (%) at Drug Concentration [uM] 1,0E+02: 67%
  Test/Control (%) at Drug Concentration [uM] 1,0E-01: 85%
  Test/Control (%) at Drug Concentration [uM] 1,0E-02: 90%
  Test/Control (%) at Drug Concentration [uM] 3,2E+00: 92%
  Test/Control (%) at Drug Concentration [uM] 3,2E+01: 96%
  Test/Control (%) at Drug Concentration [uM] 3,2E-01: 86%
  Test/Control (%) at Drug Concentration [uM] 3,2E-02: 86%
  Test/Control (%) at Drug Concentration [uM] 3,2E-03: 84%
OVXF OVCAR-8; [9]
  Test/Control (%) at Drug Concentration [uM] 1,0E+00: 89%
  Test/Control (%) at Drug Concentration [uM] 1,0E+01: 82%
  Test/Control (%) at Drug Concentration [uM] 1,0E+02: 32%
  Test/Control (%) at Drug Concentration [uM] 1,0E-01: 86%
  Test/Control (%) at Drug Concentration [uM] 1,0E-02: 90%
  Test/Control (%) at Drug Concentration [uM] 1,0E-03: 92%
  Test/Control (%) at Drug Concentration [uM] 3,2E+00: 84%
  Test/Control (%) at Drug Concentration [uM] 3,2E+01: 74%
MAXF T47D; 10 μM phenoxybenzamine, T47D
  Percent cell growth in Oncotest screen with 10% FCS (72 hr incubation): 97%
MAXF T47D; Homo sapiens, MAXF T47D Mammary, 1% FCS
  IC50: 83.4 µM
MAXF T47D; MAX T47D, 1% FCS, study P495C
  Test/Control (%) at Drug Concentration [uM] 1,0E+00: 98%
  Test/Control (%) at Drug Concentration [uM] 1,0E+01: 96%
  Test/Control (%) at Drug Concentration [uM] 1,0E+02: 37%
  Test/Control (%) at Drug Concentration [uM] 3,2E+00: 99%
  Test/Control (%) at Drug Concentration [uM] 3,2E+01: 92%
MAXF T47D; MAX T47D, 10% FCS, study P495A
  Test/Control (%) at Drug Concentration [uM] 1,0E+00: 101%
  Test/Control (%) at Drug Concentration [uM] 1,0E+01: 97%
  Test/Control (%) at Drug Concentration [uM] 1,0E+02: 74%
  Test/Control (%) at Drug Concentration [uM] 1,0E-01: 97%
  Test/Control (%) at Drug Concentration [uM] 1,0E-02: 92%
  Test/Control (%) at Drug Concentration [uM] 3,2E+00: 102%
  Test/Control (%) at Drug Concentration [uM] 3,2E+01: 95%
  Test/Control (%) at Drug Concentration [uM] 3,2E-01: 97%
  Test/Control (%) at Drug Concentration [uM] 3,2E-02: 92%
  Test/Control (%) at Drug Concentration [uM] 3,2E-03: 97%
MAXF T47D; MAX T47D, 10% FCS, study P495B
  Test/Control (%) at Drug Concentration [uM] 1,0E+00: 80%
  Test/Control (%) at Drug Concentration [uM] 1,0E+01: 79%
  Test/Control (%) at Drug Concentration [uM] 1,0E+02: 57%
  Test/Control (%) at Drug Concentration [uM] 1,0E-01: 92%
  Test/Control (%) at Drug Concentration [uM] 1,0E-02: 93%
  Test/Control (%) at Drug Concentration [uM] 1,0E-03: 94%
  Test/Control (%) at Drug Concentration [uM] 3,2E+00: 79%
  Test/Control (%) at Drug Concentration [uM] 3,2E+01: 84%
LXFS DMS 273; Homo sapiens, LXFS DMS 273 Small-cell lung, 1% FCS
  IC50: 99.8 µM
LXFS DMS 273; [10]
  Test/Control (%) at Drug Concentration [uM] 1,0E+00: 104%
  Test/Control (%) at Drug Concentration [uM] 1,0E+01: 91%
  Test/Control (%) at Drug Concentration [uM] 1,0E+02: 49%
  Test/Control (%) at Drug Concentration [uM] 3,2E+00: 101%
  Test/Control (%) at Drug Concentration [uM] 3,2E+01: 100%
LXFS DMS 273; [11]
  Test/Control (%) at Drug Concentration [uM] 1,0E+00: 76%
  Test/Control (%) at Drug Concentration [uM] 1,0E+01: 82%
  Test/Control (%) at Drug Concentration [uM] 1,0E+02: 105%
  Test/Control (%) at Drug Concentration [uM] 1,0E-01: 81%
  Test/Control (%) at Drug Concentration [uM] 1,0E-02: 75%
  Test/Control (%) at Drug Concentration [uM] 3,2E+00: 87%
  Test/Control (%) at Drug Concentration [uM] 3,2E+01: 100%
  Test/Control (%) at Drug Concentration [uM] 3,2E-01: 80%
  Test/Control (%) at Drug Concentration [uM] 3,2E-02: 74%
  Test/Control (%) at Drug Concentration [uM] 3,2E-03: 83%
HDAC5
  IC50: 9.8 µM
